The values below come from paper PMC4913735, “Non‐glycosidic compounds can stimulate both human and mouse iNKT cells” (European Journal of Immunology, 2016).

This assay deals with human iNKT‐cell TCR (Homo sapiens, UniProt A0A0B4J240+P15813). Description: SPR (BIAcore) binding of soluble human iNKT‐cell TCR to hCD1d/lipid complexes. The method, then:
Two analogs of ThrCer, ThrCer 6, and ThrCer 7 were synthesized. […] We first carried out measurements to assess the binding affinity of these ThrCer analogs to human iNKT‐cell TCR (Fig. 1B). Recombinant human CD1d (hCD1d) molecules were refolded in vitro with ThrCer 6 and ThrCer 7 separately and coupled to BIAcore chips, over which refolded human iNKT‐cell TCR was injected at different concentrations 34. […] Importantly, these findings were consistent with data obtained using tetrameric human iNKT‐cell TCRs as a staining reagent to identify lipid/CD1d complexes on the surface of C1R cells that had been transfected with hCD1d cDNA (hCD1d C1R cells) and subsequently loaded with the different lipids 34 (Fig. 1C).
Soluble human invariant TCR was generated as previously described 34 where both the Vα24 and Vβ11 chains were individually overexpressed in Escherichia coli, purified from the inclusion bodies, then refolded, and purified to generate the TCR heterodimers, according to Boulter et al. 43. The murine TCR was generated according to Pellici et al. as a chimeric molecule (with variable murine regions and human constant regions) 44. The hybrid alpha chains and beta chains were individually expressed in E. coli and purified from the inclusion bodies, then refolded as above.
SPR experiments were performed with a BIAcore 3000 to measure the affinity and kinetics of iNKT‐cell TCR binding to human CD1d–ligand complexes. In brief, approximately 1000 RU of the biotinylated hCD1d–lipid complexes were immobilized onto streptavidin‐coated CM5 sensor chips (BIAcore). Aliquots of purified TCR with increasing concentrations were passed over immobilized hCD1d–lipid complex at a flow rate of 10 μL/min for the equilibrium‐binding experiments or 50 μL/min for the kinetics experiments. The dissociation constants, K d, were calculated by fitting the data from the equilibrium‐binding experiment to a non‐linear regression saturation binding model (GraphPad Prism 5.0), whereas the k off data were estimated from the kinetics experiments by fitting the data with the built‐in models of the BIAeval3.1 software (BIAcore).
(Surface plasmon resonance follows binding to a sensor surface in real time, without labels.)

human iNKT‐cell TCR, sequence (P01848 1-93): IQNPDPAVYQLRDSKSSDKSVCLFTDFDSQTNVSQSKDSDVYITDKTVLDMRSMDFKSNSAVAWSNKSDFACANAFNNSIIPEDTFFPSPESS
human iNKT‐cell TCR, sequence (P61769 21-119, further chain): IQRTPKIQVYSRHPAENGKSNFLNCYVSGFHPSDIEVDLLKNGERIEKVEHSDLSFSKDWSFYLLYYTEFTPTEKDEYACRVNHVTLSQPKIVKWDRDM
human iNKT‐cell TCR, sequence (A0A0B4J240 22-114): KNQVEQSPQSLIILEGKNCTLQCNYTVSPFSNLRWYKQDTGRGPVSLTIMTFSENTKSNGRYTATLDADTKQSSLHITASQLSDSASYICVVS
human iNKT‐cell TCR, sequence (P01850 1-129, further chain): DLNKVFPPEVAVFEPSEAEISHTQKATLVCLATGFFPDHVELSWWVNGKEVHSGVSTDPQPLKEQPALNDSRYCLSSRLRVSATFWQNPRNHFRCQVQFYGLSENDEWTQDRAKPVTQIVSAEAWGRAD
human iNKT‐cell TCR, sequence (P15813 20-301): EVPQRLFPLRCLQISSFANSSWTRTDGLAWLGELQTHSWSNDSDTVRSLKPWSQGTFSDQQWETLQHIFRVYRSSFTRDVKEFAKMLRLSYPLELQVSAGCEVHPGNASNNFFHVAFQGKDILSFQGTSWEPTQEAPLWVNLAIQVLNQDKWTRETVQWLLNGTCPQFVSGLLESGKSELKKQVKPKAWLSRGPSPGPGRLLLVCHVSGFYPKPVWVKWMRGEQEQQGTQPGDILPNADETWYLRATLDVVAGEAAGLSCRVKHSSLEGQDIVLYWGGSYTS

As to `CCCCCCCCCCCCCCCCCCCCCCCCCC(=O)N[C@@H](COC[C@H](O)[C@@H](O)CO)[C@H](O)[C@H](O)CCCCCCCCCCCCCC` [ThrCer, threitolceramide, reference compound], the Kd (SPR equilibrium binding, hCD1d refolded with lipid, read-out: K d, human iNKT‐cell TCR binding to hCD1d/lipid complex) amounted to 3.15 µM. For the setting “SPR kinetics experiment, read-out: k off, human iNKT‐cell TCR from hCD1d/lipid complex”, the koff was 0.114 s⁻¹.
